According to US20230416227A1, “PLASMA KALLIKREIN INHIBITORS” (Merck Sharp & Dohme LLC, priority 2020, published 2023):
pIC50: −log10 of the molar value.

Target: T1, Human plasma kallikrein (Homo sapiens, UniProt P03952)
T1 construct: yields a heavy chain (371 amino acids) and a light chain (248 amino acids); purchased Enzyme Research Laboratories
Test: Plasma Kallikrein Assay
Format: biochemical
Conditions: purified Human plasma kallikrein 0.5 nM, substrate Acetyl-K-P-R-AFC, pH 7.4
Description: The effectiveness of a compound of the present invention as an inhibitor of plasma kallikrein can be determined using a relevant purified serine protease, and an appropriate synthetic substrate. The rate of hydrolysis of the chromogenic or fluorogenic substrate by the relevant serine protease was measured both in the absence and presence of compounds of the present invention. Assays were conducted at rt or at 37° C. […] A decrease in the rate of fluorescence change in the presence of inhibitor is indicative of enzyme inhibition. Such methods are known to one skilled in the art. The results of this assay are expressed as the half-maximal inhibitory concentrations (IC50), or the inhibitory constant, Ki.
Plasma kallikrein determinations were made in 50 mM HEPES buffer at pH 7.4 containing 150 mM NaCl, 5 mM CaCl2), and 0.1% PEG 8000 (polyethylene glycol; Fisher Scientific). […]
Times required to achieve equilibration between enzyme and inhibitor were determined in control experiments. The reactions were performed under linear progress curve conditions and fluorescence increase measured at 405 Ex/510 Em nm. […] IC50 was determined by inflection point from a four parameter logistic curve fit. Ki was calculated using the Cheng Prusoff equation, Ki=IC50/(1+([S]/Km)).

T1 sequence (P03952 391-638 limits assumed): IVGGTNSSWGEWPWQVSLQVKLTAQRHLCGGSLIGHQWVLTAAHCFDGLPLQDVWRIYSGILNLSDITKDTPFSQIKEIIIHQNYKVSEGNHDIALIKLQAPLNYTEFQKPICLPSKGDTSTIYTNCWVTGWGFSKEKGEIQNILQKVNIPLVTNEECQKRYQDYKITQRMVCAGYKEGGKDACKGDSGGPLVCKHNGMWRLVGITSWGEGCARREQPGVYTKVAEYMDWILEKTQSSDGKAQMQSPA
T1 sequence (P03952 20-390 partner limits assumed): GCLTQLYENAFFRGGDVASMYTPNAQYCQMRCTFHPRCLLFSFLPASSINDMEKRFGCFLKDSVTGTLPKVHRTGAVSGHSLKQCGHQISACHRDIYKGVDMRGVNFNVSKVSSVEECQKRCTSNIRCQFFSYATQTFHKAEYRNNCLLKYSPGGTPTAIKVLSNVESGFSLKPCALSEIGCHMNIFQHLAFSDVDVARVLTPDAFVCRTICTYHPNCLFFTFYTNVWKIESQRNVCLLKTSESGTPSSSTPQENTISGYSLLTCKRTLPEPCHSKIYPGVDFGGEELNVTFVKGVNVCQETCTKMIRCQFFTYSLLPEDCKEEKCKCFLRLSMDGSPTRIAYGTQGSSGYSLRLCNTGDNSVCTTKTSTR

| Structure (SMILES) | pIC50 |
| --- | --- |
| CC(c1cnc(N2CC[C@H]2CN2CCCC(C)(O)C2)nc1)n1cc(NC(=O)c2cncc(-c3c(C(F)F)ccc(Cl)c3F)n2)cn1 (stereo partly drawn) [Example 176, 6-(3-Chloro-6-(difluoromethyl)-2-fluorophenyl)-N-(1-(1-(2-((2S)-2-((3-hydroxy-3-methylpiperidin-1-yl)methyl)azetidin-1-yl)pyrimidin-5-yl)ethyl)-1H-pyrazol-4-yl)pyrazine-2-carboxamide] | 8.85 |
| CC(c1cnc(N2CC3CC3C2)nc1)n1cc(NC(=O)c2nc(-c3c(C(F)F)ccc(Cl)c3F)cnc2N)cn1 (single isomer, unassigned) [Example 33, N-(1-((1S or 1R)-1-(2-(3-azabicyclo[3.1.0]hexan-3-yl)pyrimidin-5-yl)ethyl)-1H-pyrazol-4-yl)-3-amino-6-(3-chloro-6-(difluoromethyl)-2-fluorophenyl)pyrazine-2-carboxamide] | 7.58 |
| CC(C)(O)CC1CCCN1c1ncc(Cn2cc(NC(=O)c3cncc(-c4c(C(F)F)ccc(Cl)c4F)n3)cn2)cn1 (single isomer, unassigned) [Example 110, (S or R)-6-(3-Chloro-6-(difluoromethyl)-2-fluorophenyl)-N-(1-((2-(2-(2-hydroxy-2-methylpropyl)pyrrolidin-1-yl)pyrimidin-5-yl)methyl)-1H-pyrazol-4-yl)pyrazine-2-carboxamide] | 7.34 |
| CC(c1cnc(N2CC[C@H]2CN2CCC[C@@H](O)C2)nc1)n1cc(NC(=O)c2cncc(-c3c(C(F)F)ccc(Cl)c3F)n2)cn1 (stereo partly drawn) [Example 177, 6-(3-Chloro-6-(difluoromethyl)-2-fluorophenyl)-N-(1-(1-(2-((S)-2-(((R)-3-hydroxypiperidin-1-yl)methyl)azetidin-1-yl)pyrimidin-5-yl)ethyl)-1H-pyrazol-4-yl)pyrazine-2-carboxamide] | 8.92 |
| CC(c1cnc(N2CC[C@H]2CN2CC(C)(O)C2)nc1)n1cc(NC(=O)c2cncc(-c3c(C(F)F)ccc(Cl)c3F)n2)cn1 (stereo partly drawn) [Example 174, 6-(3-Chloro-6-(difluoromethyl)-2-fluorophenyl)-N-(1-(1-(2-((S)-2-((3-hydroxy-3-methylazetidin-1-yl)methyl)azetidin-1-yl)pyrimidin-5-yl)ethyl)-1H-pyrazol-4-yl)pyrazine-2-carboxamide] | 8.64 |
| O=C(Nc1cnn(Cc2ccc(N3CC[C@@H]3CO)nc2)c1)c1cncc(-c2c(C(F)F)ccc(Cl)c2F)n1 [Example 68, (R)-6-(3-Chloro-6-(difluoromethyl)-2-fluorophenyl)-N-(1-((6-(2-(hydroxymethyl)azetidin-1-yl)pyridin-3-yl)methyl)-1H-pyrazol-4-yl)pyrazine-2-carboxamide] | 7.58 |
| O=C(Nc1cnn(Cc2cnc(N3CCCC3C3(O)CC3)nc2)c1)c1cncc(-c2c(C(F)F)ccc(Cl)c2F)n1 (stereo not shown) [Example 107, 6-(3-Chloro-6-(difluoromethyl)-2-fluorophenyl)-N-(1-((2-(2-(1-hydroxycyclopropyl)pyrrolidin-1-yl)pyrimidin-5-yl)methyl)-1H-pyrazol-4-yl)pyrazine-2-carboxamide] | 7.36 |
| O=C(Nc1cnn(Cc2cnc(N3CCC3)nc2)c1)c1nc(-c2c(C(F)F)ccc(Cl)c2F)cnc1O [Example 20, N-(1-((2-(Azetidin-1-yl)pyrimidin-5-yl)methyl)-1H-pyrazol-4-yl)-6-(3-chloro-6-(difluoromethyl)-2-fluorophenyl)-3-hydroxypyrazine-2-carboxamide] | 7.81 |
| O=C(Nc1cnn(Cc2ccc(N3CCNC4(CC4)C3)nc2)c1)c1cncc(-c2c(C(F)F)ccc(Cl)c2F)n1 [Example 128, N-(1-((6-(4,7-Diazaspiro[2.5]octan-7-yl)pyridin-3-yl)methyl)-1H-pyrazol-4-yl)-6-(3-chloro-6-(difluoromethyl)-2-fluorophenyl)pyrazine-2-carboxamide] | 7.49 |
| O=C(Nc1cnn(C2CCc3nc(N4CCC4)ccc32)c1)c1cncc(-c2c(C(F)F)ccc(Cl)c2F)n1 (single isomer, unassigned) [Example 35, (S or R)-N-(1-(2-(azetidin-1-yl)-6,7-dihydro-5H-cyclopenta[b]pyridin-5-yl)-1H-pyrazol-4-yl)-6-(3-chloro-6-(difluoromethyl)-2-fluorophenyl)pyrazine-2-carboxamide] | 7.48 |
| CC(c1cnc(N2CC[C@H]2[C@@H](C)NCC2(O)CC2)nc1)n1cc(NC(=O)c2cncc(-c3c(C(F)F)ccc(Cl)c3F)n2)cn1 (stereo partly drawn) [Example 192, 6-(3-Chloro-6-(difluoromethyl)-2-fluorophenyl)-N-(1-(1-(2-((S)-2-((R)-1-(((1-hydroxycyclopropyl)methyl)amino)ethyl)azetidin-1-yl)pyrimidin-5-yl)ethyl)-1H-pyrazol-4-yl)pyrazine-2-carboxamide] | 8.39 |
| O=C(Nc1cnn(Cc2cnc(N3CCCC3CC3(O)CC3)nc2)c1)c1cncc(-c2c(C(F)F)ccc(Cl)c2F)n1 (single isomer, unassigned) [Example 112, (S or R)-6-(3-Chloro-6-(difluoromethyl)-2-fluorophenyl)-N-(1-((2-(2-((1-hydroxycyclopropyl)methyl)pyrrolidin-1-yl)pyrimidin-5-yl)methyl)-1H-pyrazol-4-yl)pyrazine-2-carboxamide] | 7.31 |
| O=C(Nc1cnn(Cc2ccc(N3CC4CCC(C3)N4)nc2)c1)c1cncc(-c2c(C(F)F)ccc(Cl)c2F)n1 [Example 204, N-(1-((6-(3,8-Diazabicyclo[3.2.1]octan-3-yl)pyridin-3-yl)methyl)-1H-pyrazol-4-yl)-6-(3-chloro-6-(difluoromethyl)-2-fluorophenvl)pyrazine-2-carboxamide] | 7.76 |
| CC(c1cnc(N2CCN(C)C(=O)C2)nc1)n1cc(NC(=O)c2cncc(-c3c(C(F)F)ccc(Cl)c3F)n2)cn1 (stereo not shown) [Example 95, 6-(3-Chloro-6-(difluoromethyl)-2-fluorophenyl)-N-(1-(1-(2-(4-methyl-3-oxopiperazin-1-yl)pyrimidin-5-yl)ethyl)-1H-pyrazol-4-yl)pyrazine-2-carboxamide] | 7.66 |
| CC1C2CC2CN1c1ncc(C(CO)n2cc(NC(=O)c3cncc(-c4c(C(F)F)ccc(Cl)c4F)n3)cn2)cn1 (single isomer, unassigned) [Example 50, 6-(3-Chloro-6-(difluoromethyl)-2-fluorophenyl)-N-(1-((S or R)-2-hydroxy-1-(2-((1R,2S,5S or 1S,2R, 5R)-2-methyl-3-azabicyclo[3.1.0]hexan-3-yl)pyrimidin-5-yl)ethyl)-1H-pyrazol-4-yl)pyrazine-2-carboxamide] | 5.95 |
| NC(=O)C1CCCN(c2ccc(Cn3cc(NC(=O)c4cncc(-c5c(C(F)F)ccc(Cl)c5F)n4)cn3)cn2)C1 (stereo not shown) [Example 129, N-(1-((6-(3-Carbamoylpiperidin-1-yl)pyridin-3-yl)methyl)-1H-pyrazol-4-yl)-6-(3-chloro-6-(difluoromethyl)-2-fluorophenyl)pyrazine-2-carboxamide] | 7.48 |
| CC1C2CC2CN1c1ncc(C(CO)n2cc(NC(=O)c3cncc(-c4c(C(F)F)ccc(Cl)c4F)n3)cn2)cn1 (single isomer, unassigned) [Example 48, 6-(3-Chloro-6-(difluoromethyl)-2-fluorophenyl)-N-(1-((S or R)-2-hydroxy-1-(2-((1S,2R,5R or 1R, 2S, 5S)-2-methyl-3-azabicyclo[3.1.0]hexan-3-yl)pyrimidin-5-yl)ethyl)-1H-pyrazol-4-yl)pyrazine-2-carboxamide] | 6.14 |
| CC(=O)N1CC[C@H]2CN(c3ccc(Cn4cc(NC(=O)c5cncc(-c6c(C(F)F)ccc(Cl)c6F)n5)cn4)cn3)[C@H]2C1 [Example 131, N-(1-((6-((1R,6S)-3-Acetyl-3,8-diazabicyclo[4.2.0]octan-8-yl)pyridin-3-yl)methyl)-1H-pyrazol-4-yl)-6-(3-chloro-6-(difluoromethyl)-2-fluorophenyl)pyrazine-2-carboxamide] | 7.42 |
| CC1CCN1c1ncc(C(C)n2cc(NC(=O)c3cncc(-c4c(C(F)F)ccc(Cl)c4F)n3)cn2)cn1 (racemic) [Example 100, 6-(3-Chloro-6-(difluoromethyl)-2-fluorophenyl)-N-(1-((R and S)-1-(2-((R and S)-2-methylazetidin-1-yl)pyrimidin-5-yl)ethyl)-1H-pyrazol-4-yl)pyrazine-2-carboxamide] | 7.69 |
| CC(c1cnc(N2CC3CC3C2C#N)nc1)n1cc(NC(=O)c2cncc(-c3c(C(F)F)ccc(Cl)c3F)n2)cn1 (single isomer, unassigned) [Example 198] | 6.72 |
| CC(c1cnc(N2C[C@H]3C[C@H]3C2C(=O)N(C)C)nc1)n1cc(NC(=O)c2cncc(-c3c(C(F)F)ccc(Cl)c3F)n2)cn1 (single isomer, unassigned) [Example 201, (1R,2S,5S or 1S,2R,5R)-3-(5-((S or R)-1-(4-(6-(3-Chloro-6-(difluoromethyl)-2-fluorophenyl)pyrazine-2-carboxamido)-1H-pyrazol-1-yl)ethyl)pyrimidin-2-yl)-N,N-dimethyl-3-azabicyclo[3.1.0]hexane-2-carboxamide] | 8.21 |
| CC(c1cnc(N2Cc3cncnc3C2)nc1)n1cc(NC(=O)c2cncc(-c3c(C(F)F)ccc(Cl)c3F)n2)cn1 (stereo not shown) [Example 78, 6-(3-Chloro-6-(difluoromethyl)-2-fluorophenyl)-N-(1-(1-(2-(5,7-dihydro-6H-pyrrolo[3,4-d]pyrimidin-6-yl)pyrimidin-5-yl)ethyl)-1H-pyrazol-4-yl)pyrazine-2-carboxamide] | 8.25 |
